Usually IC50 stands for the concentration that gives 50% inhibition.

From ChEMBL document CHEMBL5532655, “Discovery of (R)-4-(8-methoxy-2-methyl-1-(1-phenylethy)-1H-imidazo[4,5-c]quinnolin-7-yl)-3,5-dimethylisoxazole as a potent and selective BET inhibitor for treatment of acute myeloid leukemia (AML) guided by FEP calculation” (Eur J Med Chem, 2024) come the findings set out here.

Common to all, as to assay: cells
One test concerns MV4-11. The conditions noted are these: Homo sapiens, MV4-11, 48 h.
The next test concerns MM1.S. The note with it: Homo sapiens, 48 h.
The subject of another test is MOLM-13. The conditions noted are these: Homo sapiens, MOLM-13, 48 h.
The next test has as its system Jurkat. The note with it: Homo sapiens, 48 h.

Description for Jurkat: Antiproliferative activity against human Jurkat cells assessed as inhibition of cell growth incubated for 48 hrs by MTT assay
Description for MM1.S: Antiproliferative activity against human MM1.S cells assessed as inhibition of cell growth incubated for 48 hrs by MTT assay
Description for MOLM-13: Antiproliferative activity against human MOLM-13 cells assessed as inhibition of cell growth incubated for 48 hrs by MTT assay
Description for MV4-11: Antiproliferative activity against human MV4-11 cells assessed as inhibition of cell growth incubated for 48 hrs by MTT assay

For `COc1ccc(-n2c(C)nc3cnc4cc(-c5ccc6[nH]ccc6c5)c(OC)cc4c32)cc1`, the IC50 in the test on MV4-11 is 9.93 µM; with MM1.S, 9.8 µM; with MOLM-13, above 20 µM; in the test with Jurkat it was 15.1 µM.
Take `COc1cc2c(cc1-c1cc(C)cc(C)c1)ncc1nc(C)n([C@@H](C)c3ccccc3)c12`: the half-inhibitory concentration (IC50) in the test with MV4-11 is 6.24 µM; with MM1.S, 5.92 µM; in the test on MOLM-13 it was above 20 µM; in the test on Jurkat, above 20 µM.
As to `COc1ccc(-n2c(C)nc3cnc4cc(-c5cnccc5OC)c(OC)cc4c32)cc1`, the half-maximal inhibitory concentration (IC50) in the test on MV4-11 is above 20 µM; in the test with MM1.S, 5.67 µM; with MOLM-13 it was above 20 µM; with Jurkat it was above 20 µM.
In the case of `COc1cc2c(cc1-c1c(C)n[nH]c1C)ncc1nc(C)n([C@@H](C)c3ccccc3)c12`, the IC50 in the test on MV4-11 was 0.53 µM; in the test with MM1.S, 8.92 µM; with MOLM-13, 13.1 µM; with Jurkat, 16.5 µM.
In the same order, the values of `COc1cc2c(cc1-c1c(C)n[nH]c1C)ncc1nc(C)n([C@H](C)c3ccccn3)c12` are 10.9 µM, above 20 µM, 0.44 µM and above 20 µM.
On to `COc1cc2c(cc1-c1ccc(C(C)=O)cc1)ncc1nc(C)n([C@@H](C)c3ccccc3)c12`, for which the IC50 was 12.5 µM in the test with MV4-11, 11.6 µM in the test with MM1.S, 4.73 µM in the test on MOLM-13 and 12.9 µM with Jurkat.
As for `COc1ccc(-n2c(C)nc3cnc4cc(-c5c(C)noc5C)c(OC)cc4c32)cc1`, the IC50 in the test with MV4-11 is 1.22 µM; in the test with MM1.S, 9.3 µM; in the test with MOLM-13, 11.6 µM; with Jurkat, above 20 µM.
In the same order, the values of `COc1cc2c(cc1-c1cnc3[nH]ccc3c1)ncc1nc(C)n(C(C)c3ccccc3)c12` (configuration not stated) are 6.13 µM, 10.1 µM, 6.85 µM and 15.6 µM.
In the case of `COc1cc2c(cc1-c1cnn(C)c1)ncc1nc(C)n([C@@H](C)c3ccccc3)c12`, the IC50 with MV4-11 was 0.62 µM; in the test with MM1.S, 11.5 µM; with MOLM-13 it was above 20 µM; with Jurkat, 2.14 µM.
The corresponding values for `COc1cc2c(cc1-c1ccc3nc[nH]c3c1)ncc1nc(C)n([C@@H](C)c3ccccc3)c12` are 10.4 µM, 8.69 µM, 19.1 µM and above 20 µM.
The corresponding values for `COc1cc2c(cc1-c1cnn(C)c1)ncc1nc(C)n([C@H](C)c3ccccc3)c12` are 6.83 µM, 6.9 µM, above 20 µM and above 20 µM.
Turning to `COc1ccc(-n2c(C)nc3cnc4cc(-c5c(C)n[nH]c5C)c(OC)cc4c32)cc1`, the IC50 with MV4-11 is 10.6 µM; with MM1.S, 3.12 µM; in the test with MOLM-13, above 20 µM; in the test with Jurkat, above 20 µM.
`COc1ccc(-n2c(C)nc3cnc4cc(-c5cnc6[nH]ccc6c5)c(OC)cc4c32)cc1`: the IC50 in the test with MV4-11 was 18.6 µM; in the test with MM1.S, 13 µM; in the test with MOLM-13, above 20 µM; in the test with Jurkat it was 4.71 µM.
As to `COc1ccc(-c2cc3ncc4nc(C)n([C@@H](C)c5ccccc5)c4c3cc2OC)cc1CO`, the concentration for half-maximal inhibition (IC50) is 18 µM in the test on MV4-11, 13.5 µM in the test with MM1.S, above 20 µM with MOLM-13 and above 20 µM in the test with Jurkat.
With `COc1ccncc1-c1cc2ncc3nc(C)n([C@@H](C)c4ccccc4)c3c2cc1OC`, the IC50 in the test on MV4-11 was above 20 µM; in the test with MM1.S, 7.4 µM; with MOLM-13, 10.9 µM; in the test with Jurkat it was above 20 µM.
As for `COc1cc2c(cc1-c1ccc(C#N)cc1)ncc1nc(C)n([C@@H](C)c3ccccc3)c12`, the IC50 in the test on MV4-11 worked out at 5 µM; with MM1.S, 9.09 µM; with MOLM-13, 10.1 µM; in the test on Jurkat, 4.53 µM.
As for `COc1cc2c(cc1-c1ccc(O)cc1)ncc1nc(C)n([C@@H](C)c3ccccc3)c12`, the half-inhibitory concentration (IC50) with MV4-11 was 2.25 µM; in the test with MM1.S, 5.79 µM; with MOLM-13 it was 8.42 µM; in the test with Jurkat, above 20 µM.
Consider `COc1ccc(-n2c(C)nc3cnc4cc(-c5ccc(N)nc5)c(OC)cc4c32)cc1`, for which the IC50 came to 9.21 µM in the test on MV4-11, 5.78 µM in the test with MM1.S, 11.3 µM in the test on MOLM-13 and 11.2 µM with Jurkat.
The corresponding values for `COc1cc2c(cc1-c1c(C)noc1C)ncc1nc(C)n([C@H](C)c3ccccn3)c12` are 1.29 µM, 3.55 µM, 6.4 µM and 16.1 µM.
Consider `COc1cc2c(cc1-c1ccc(N)nc1)ncc1nc(C)n([C@@H](C)c3ccccc3)c12`, for which the IC50 with MV4-11 was found to be 1.4 µM; in the test on MM1.S, 5.69 µM; with MOLM-13, 4.74 µM; in the test with Jurkat it was 15.2 µM.
In the same order, the values of `COc1cc2c(cc1-c1c(C)noc1C)ncc1nc(C)n(-c3ccc(CC#N)cc3)c12` are 1.05 µM, 7.06 µM, 10.1 µM and above 20 µM.
The corresponding values for `COc1ccc(-n2c(C)nc3cnc4cc(-c5ccc(C#N)cc5)c(OC)cc4c32)cc1` are 5.39 µM, 7.9 µM, above 20 µM and above 20 µM.
Turning to `COc1ccc(-n2c(C)nc3cnc4cc(-c5ccc(C)cc5)c(OC)cc4c32)cc1`, the IC50 in the test on MV4-11 is above 20 µM; in the test on MM1.S, 6.34 µM; in the test with MOLM-13 it was above 20 µM; with Jurkat, above 20 µM.
As to `COc1ccc(-n2c(C)nc3cnc4cc(-c5ccc6nc[nH]c6c5)c(OC)cc4c32)cc1`, the IC50 is 5.33 µM in the test on MV4-11, 5.8 µM with MM1.S, above 20 µM in the test with MOLM-13 and 17.2 µM in the test on Jurkat.
On to `COc1cc2c(cc1-c1ccc(C(F)(F)F)cc1)ncc1nc(C)n([C@@H](C)c3ccccc3)c12`, for which the IC50 with MV4-11 amounted to 5 µM; in the test on MM1.S, 11.9 µM; in the test with MOLM-13 it was 0.91 µM; in the test on Jurkat, 16.4 µM.
In the same order, the values of `COc1ccc(-n2c(C)nc3cnc4cc(-c5ccc(O)cc5)c(OC)cc4c32)cc1` are 4.96 µM, 2.44 µM, 18.3 µM and 15 µM.
As for `COc1ccc(-n2c(C)nc3cnc4cc(-c5ccc(C(F)(F)F)cc5)c(OC)cc4c32)cc1`, the IC50 with MV4-11 is 5.64 µM; in the test with MM1.S, above 20 µM; in the test with MOLM-13 it was above 20 µM; in the test on Jurkat, above 20 µM.
`COc1ccc(-n2c(C)nc3cnc4cc(-c5cnc(N)nc5)c(OC)cc4c32)cc1`: the IC50 with MV4-11, in the test on MM1.S, in the test with MOLM-13 and with Jurkat was above 20 µM throughout.
In the case of `COc1cc2c(cc1-c1c(C)noc1C)ncc1nc(C)n([C@@H](C)c3ccccc3)c12`, the IC50 in the test on MV4-11 was found to be 2.02 µM; with MM1.S it was 11.2 µM; with MOLM-13, 12.5 µM; in the test with Jurkat it was 16.6 µM.
The corresponding values for `COc1cc2c(cc1-c1ccc3[nH]ccc3c1)ncc1nc(C)n([C@@H](C)c3ccccc3)c12` are 2.21 µM, 13.7 µM, 9.7 µM and above 20 µM.
The corresponding values for `COc1cc2c(cc1-c1ccc(F)cc1)ncc1nc(C)n([C@@H](C)c3ccccc3)c12` are 2.85 µM, 9.48 µM, 2.49 µM and above 20 µM.
Consider `COc1ccc(-c2cc3ncc4nc(C)n(-c5ccc(OC)cc5)c4c3cc2OC)cc1`, for which the IC50 was 4.41 µM in the test on MV4-11, 12.5 µM with MM1.S, 15.6 µM in the test on MOLM-13 and above 20 µM in the test on Jurkat.
Consider `COc1ccc(-n2c(C)nc3cnc4cc(-c5ccc(F)cc5)c(OC)cc4c32)cc1`, for which the IC50 was 11 µM in the test on MV4-11, above 20 µM in the test with MM1.S, above 20 µM in the test on MOLM-13 and above 20 µM with Jurkat.
As for `COc1ccc(-n2c(C)nc3cnc4cc(-c5ccc(C(C)=O)cc5)c(OC)cc4c32)cc1`, the IC50 is 11.1 µM with MV4-11, 12.4 µM with MM1.S, above 20 µM in the test with MOLM-13 and above 20 µM with Jurkat.
For `COc1cc2c(cc1-c1cnc(N)nc1)ncc1nc(C)n([C@@H](C)c3ccccc3)c12`, the IC50 was above 20 µM with MV4-11, 9.23 µM in the test on MM1.S, above 20 µM in the test on MOLM-13 and above 20 µM in the test on Jurkat.
For the molecule `COc1ccc(-c2cc3ncc4nc(C)n([C@@H](C)c5ccccc5)c4c3cc2OC)cc1`, the IC50 in the test on MV4-11 came to 13.1 µM; in the test with MM1.S, 4.84 µM; in the test with MOLM-13, 4.12 µM; in the test on Jurkat it was 5.46 µM.
On to `COc1ccc(-n2c(C)nc3cnc4cc(-c5ccc(N)cc5)c(OC)cc4c32)cc1`, for which the concentration for half-maximal inhibition (IC50) was above 20 µM in the test on MV4-11, 9.8 µM in the test on MM1.S, above 20 µM in the test on MOLM-13 and above 20 µM in the test with Jurkat.
As for `COc1ccc(-n2c(C)nc3cnc4cc(-c5cnn(C)c5)c(OC)cc4c32)cc1`, the IC50 in the test with MV4-11 is 9.71 µM; with MM1.S, 3.23 µM; in the test with MOLM-13, above 20 µM; in the test on Jurkat, above 20 µM.
On to `COc1cc2c(cc1-c1ccc(N)cc1)ncc1nc(C)n([C@@H](C)c3ccccc3)c12`, for which the IC50 in the test with MV4-11 was determined as 3.25 µM; with MM1.S it was 4.04 µM; in the test on MOLM-13, 7.16 µM; with Jurkat, 11.1 µM.
In the same order, the values of `COc1cc2c(cc1-c1c(C)noc1C)ncc1nc(C)n(C3CCOCC3)c12` are 1.02 µM, 1.85 µM, 5.15 µM and above 20 µM.
Turning to `COc1ccc(-n2c(C)nc3cnc4cc(-c5cc(C)cc(C)c5)c(OC)cc4c32)cc1`, the IC50 is above 20 µM in the test with MV4-11, 12 µM with MM1.S, above 20 µM in the test on MOLM-13 and above 20 µM in the test on Jurkat.
Consider `COc1cc2c(cc1-c1c(C)noc1C)ncc1nc(C)n(-c3ccc(C#N)cc3)c12`, for which the IC50 with MV4-11 is 4.63 µM; in the test with MM1.S, 2.34 µM; in the test with MOLM-13, 12.8 µM; in the test with Jurkat, above 20 µM.
In the same order, the values of `COc1cc2c(cc1-c1cnn(C)c1)ncc1nc(C)n([C@H](C)c3ccccn3)c12` are 2.6 µM, 5.84 µM, 3.55 µM and 9.87 µM.
